Here are results for 2 molecules from patent US7091354B2, “Processes for the preparation of peripheral opioid antagonist compounds and intermediates thereto” (Adolor Corporation, priority 2002, dated 2006).

A word on the melting point: it is the temperature of the solid-liquid transition. Molecule `C=C(C(=O)OC)[C@@H](O)c1ccccc1` (single isomer, unassigned) displayed a melting point of 48 °C.

The molecule `C=C(C(=O)OC)C(O)c1ccccc1` (single isomer, unassigned) came in with a melting point of 51 °C.
